Assay results taken from US10323078B2, “Isolated peptides and fragments thereof from fibrinogen for use as drugs, particularly in skin inflammatory diseases” (Universite Paris Descartes, priority 2015, dated 2019).

Test system: Pfg
Test: Binding of biotinylated Pfg to immobilized fibrinogen (polystyrene plate)
Parameters: species or system Propionibacterium acnes
Details: various quantities of fibrinogen immobilized; biotinylated Pfg 0.1 μg/ml, 2 h at 23° C.
Protocol: FIG. 5: Binding of P. acnes surface proteins to fibrinogen. (A) Various quantities of human fibrinogen (hFg) and bovine fibrinogen (bFg) were immobilized onto a 96-well polystyrene plate at 4° C. for 18 h and incubated with biotinylated Pfg at 0.1 μg/ml for 2 h at 23° C. Bovine serum albumin (BSA) was used as negative control. Bound material was detected by using the HRP-streptavidin conjugate. Peroxidase activity was measured by using the ABTS substrate at 405 nm. Proteins (10 μg per lane) were separated by 10% SDS-PAGE and detected by (B) Commassie blue staining, and transferred to nitrocellulose membrane and incubated with (C) HRP-streptavidine alone, and (D) biotinylated Pfg (0.1 μg/ml). Lanes 1: molecular weight standards. Lane 2: BSA. […]
To characterize the interaction between P. acnes and ligands, we used biotinylated molecules in quantitative and qualitative assays. […] For quantitative analysis, unlabeled protein were diluted into 50 mM carbonate-bicarbonate, pH 9.6 buffer to yield a protein concentration ranging from 0.01 to 50 μg/ml, and then immobilized to 96-well polystyrene plates at 4° C. overnight. […] After washing, bound peroxidase was detected using the chromogenic peroxidase substrate ABTS. […] Binding activity was detected by incubating the membranes with 20 ml of PBT containing biotinylated proteins (0.1 μg/ml) for 2 h at room temperature followed by three washes with PBT. […]

## human fibrinogen: purified commercial human fibrinogen (Sigma), glycoprotein hexamer of Aα, Bß and γ chains
  Binding of biotinylated Pfg to immobilized fibrinogen: dose-dependent with a higher affinity for hFg
